From ChEMBL document CHEMBL1201862, “PubChem BioAssay data set” (2004)
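Following 48 hours of exposure in 96-well plates, responses at five concentrations were used to interpolate endpoints linearly. Abbreviation: GI50, concentration required for 50% inhibition of growth.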 Active and inactive are the calls of the source. No stated cut-off is given here; in the data, active = GI50 up to about 1.1 µM and inactive = higher.

Columns and labels:
Assay in all cases: inhibition of tumour cell growth, NCI panel, 48 h
A498 = test system: A498
BT-549 = test system: BT-549
DU-145 = test system: DU-145
HL-60 = test system: HL-60
HOP-92 = test system: HOP-92
HT-29 = test system: HT-29
IGROV-1 = test system: IGROV-1
KM12 = test system: KM12
LOX IMVI = test system: LOX IMVI
MDA-MB-435 = test system: MDA-MB-435
MOLT-4 = test system: MOLT-4
NCI-H226 = test system: NCI-H226
NCI-H522 = test system: NCI-H522
OVCAR-3 = test system: OVCAR-3
SF-539 = test system: SF-539
SK-OV-3 = test system: SK-OV-3
SNB-75 = test system: SNB-75
TK-10 = test system: TK-10
U-251 = test system: U-251
UO-31 = test system: UO-31

Row | SMILES | GI50 (A498) | GI50 (BT-549) | GI50 (DU-145) | GI50 (HL-60) | GI50 (HOP-92) | GI50 (HT-29) | GI50 (IGROV-1) | GI50 (KM12) | GI50 (LOX IMVI) | GI50 (MDA-MB-435) | GI50 (MOLT-4) | GI50 (NCI-H226) | GI50 (NCI-H522) | GI50 (OVCAR-3) | GI50 (SF-539) | GI50 (SK-OV-3) | GI50 (SNB-75) | GI50 (TK-10) | GI50 (U-251) | GI50 (UO-31)
1 | Cc1c(NC(=O)Nc2c(Cl)cccc2Cl)c(=O)n(-c2ccccc2)n1C | > 100 µM (inactive) | > 100 µM (inactive) | > 100 µM (inactive) | > 100 µM (inactive) | > 100 µM (inactive) | > 100 µM (inactive) | > 100 µM (inactive) | > 100 µM (inactive) | > 100 µM (inactive) | > 100 µM (inactive) | > 100 µM (inactive) | > 100 µM (inactive) | > 100 µM (inactive) | > 100 µM (inactive) | > 100 µM (inactive) | > 100 µM (inactive) | > 100 µM (inactive) | > 100 µM (inactive) | > 100 µM (inactive) | > 100 µM (inactive)
2 | Cc1nc(C)c(C(=O)NNC(=O)Cc2ccccc2)cc1C(=O)NNC(=O)Cc1ccccc1 | > 100 µM (inactive) | > 100 µM (inactive) | > 100 µM (inactive) | > 100 µM (inactive) | > 100 µM (inactive) | > 100 µM (inactive) | > 100 µM (inactive) | > 100 µM (inactive) | > 100 µM (inactive) | > 100 µM (inactive) | > 100 µM (inactive) | > 100 µM (inactive) | > 100 µM (inactive) | > 100 µM (inactive) | > 100 µM (inactive) | > 100 µM (inactive) | 94 µM (inactive) | > 100 µM (inactive) | > 100 µM (inactive) | > 100 µM (inactive)
3 | FC(F)(F)c1ccc2c(c1)nc(Cc1ccc(Cl)c(Cl)c1)n2CC1CCCN2CCCCC12 (stereo not given) | 25.4 µM (inactive) | 28.6 µM (inactive) | 50.6 µM (inactive) | 17.5 µM (inactive) | 22.9 µM (inactive) | 11.2 µM (inactive) | 21.2 µM (inactive) | 24.4 µM (inactive) | 16.3 µM (inactive) | 30.4 µM (inactive) | 37.4 µM (inactive) | 26.5 µM (inactive) | 14.2 µM (inactive) | 20 µM (inactive) | 18.9 µM (inactive) | 31.3 µM (inactive) | 28.6 µM (inactive) | 19.1 µM (inactive) | 23.1 µM (inactive) | 0.169 µM (active)
4 | COC(=O)C1=C(C(=O)OC)SC2(S1)C(C(=O)OC)=C(C(=O)OC)Sc1c2ss/c1=N/C(C)(C)C | 1.92 µM (inactive) | 2.07 µM (inactive) | 0.877 µM (active) | 0.753 µM (active) | 1.3 µM (inactive) | 1.17 µM (inactive) | 1.4 µM (inactive) | 1.57 µM (inactive) | 1.04 µM (active) | 1.55 µM (inactive) | 0.417 µM (active) | 3.18 µM (inactive) | 0.555 µM (active) | 1.67 µM (inactive) | 1.27 µM (inactive) | 5.18 µM (inactive) | 1.45 µM (inactive) | 1.64 µM (inactive) | 1.72 µM (inactive) | 1.92 µM (inactive)
5 | O=[N+]([O-])c1ccc(NS(=O)(=O)C(F)(F)F)cc1 | > 100 µM (inactive) | > 100 µM (inactive) | > 100 µM (inactive) | > 100 µM (inactive) | 36.6 µM (inactive) | > 100 µM (inactive) | 85.1 µM (inactive) | > 100 µM (inactive) | > 100 µM (inactive) | > 100 µM (inactive) | > 100 µM (inactive) | > 100 µM (inactive) | 22.1 µM (inactive) | > 100 µM (inactive) | > 100 µM (inactive) | > 100 µM (inactive) | > 100 µM (inactive) | > 100 µM (inactive) | > 100 µM (inactive) | > 100 µM (inactive)
6 | O=C(NP(=O)(N1CC1)N1CC1)c1cc(I)ccc1I [DIIODBENZOTEPH] | 64.4 µM (inactive) | 53.7 µM (inactive) | 15.6 µM (inactive) | 5.06 µM (inactive) | 59.7 µM (inactive) | 62.7 µM (inactive) | 40.6 µM (inactive) | > 91.2 µM (inactive) | 12.4 µM (inactive) | 32.3 µM (inactive) | 5.58 µM (inactive) | 46.1 µM (inactive) | 27.3 µM (inactive) | 36.6 µM (inactive) | 23.9 µM (inactive) | 25.6 µM (inactive) | 37.9 µM (inactive) | > 100 µM (inactive) | 24.6 µM (inactive) | 28.1 µM (inactive)
7 | COc1cc(I)c2c3c1OC1C34CCN(C)C(C2)C4=CC(I)C1(OC)OC (stereo not given) | 32.2 µM (inactive) | 23.9 µM (inactive) | 18.7 µM (inactive) | 17 µM (inactive) | 13.1 µM (inactive) | 26.5 µM (inactive) | 20.1 µM (inactive) | 17.5 µM (inactive) | 19.6 µM (inactive) | 13.2 µM (inactive) | 16.2 µM (inactive) | 22.6 µM (inactive) | 21.2 µM (inactive) | 19.2 µM (inactive) | 18.1 µM (inactive) | 24.8 µM (inactive) | 15.9 µM (inactive) | 21.3 µM (inactive) | 18.3 µM (inactive) | 18.4 µM (inactive)
8 | COc1ccc(Nc2nc3ccccc3nc2C(=O)O)cc1OC | 21.3 µM (inactive) | 52.7 µM (inactive) | > 100 µM (inactive) | 88.1 µM (inactive) | 27.5 µM (inactive) | > 100 µM (inactive) | 98.4 µM (inactive) | 66.8 µM (inactive) | 99.8 µM (inactive) | > 100 µM (inactive) | 65 µM (inactive) | 57 µM (inactive) | > 100 µM (inactive) | 40.2 µM (inactive) | > 100 µM (inactive) | 64.4 µM (inactive) | 69.2 µM (inactive) | 82.8 µM (inactive) | > 100 µM (inactive) | 29.6 µM (inactive)
9 | COc1ccc(/C=C2\CC3C4CC=C5C[C@@H](O)CC[C@]5(C)C4CC[C@]3(C)C2=O)cc1OC (stereo not given in full) | 28.6 µM (inactive) | 44.6 µM (inactive) | 27.5 µM (inactive) | 13.1 µM (inactive) | 74.6 µM (inactive) | 31.8 µM (inactive) | 75.3 µM (inactive) | 32.8 µM (inactive) | 30.8 µM (inactive) | 24.3 µM (inactive) | 20 µM (inactive) | 29.4 µM (inactive) | 17.2 µM (inactive) | 5.09 µM (inactive) | 57.8 µM (inactive) | 41.6 µM (inactive) | 16 µM (inactive) | 32.3 µM (inactive) | 26.2 µM (inactive) | 14.8 µM (inactive)
10 | CC(=O)C1(O)Cc2c(O)c3c(c(O)c2C(OC2CC(N)C(O)C(C)O2)C1)C(=O)c1ccccc1C3=O (stereo not given) | 0.0115 µM (active) | 0.134 µM (active) | 0.0221 µM (active) | 0.00206 µM (active) | 0.187 µM (active) | 0.0252 µM (active) | 0.0243 µM (active) | 0.0498 µM (active) | 0.01 µM (active) | 0.12 µM (active) | 0.01 µM (active) | 0.0163 µM (active) | 0.015 µM (active) | 0.178 µM (active) | 0.0163 µM (active) | 0.161 µM (active) | 0.0132 µM (active) | 0.053 µM (active) | 0.0255 µM (active) | 0.042 µM (active)
11 | O=C(CC(=O)Nc1ccccc1Cl)NNC(c1cc(/N=N/c2ccc(Br)cc2)ccc1O)P(O)O (stereo not given) | 2.27 µM (inactive) | 2.33 µM (inactive) | 2.42 µM (inactive) | 0.323 µM (active) | 5.98 µM (inactive) | > 10 µM (inactive) | 6.9 µM (inactive) | 2.95 µM (inactive) | 1.07 µM (active) | 2.04 µM (inactive) | 0.338 µM (active) | 1.22 µM (inactive) | 2.97 µM (inactive) | 0.348 µM (active) | 0.951 µM (active) | 3.03 µM (inactive) | 1.62 µM (inactive) | 1.61 µM (inactive) | 1.54 µM (inactive) | 0.995 µM (active)
12 | COc1ccc2cc(C(C)C(=O)N3CCOC3=O)ccc2c1 (stereo not given) | 71.4 µM (inactive) | > 100 µM (inactive) | > 100 µM (inactive) | > 100 µM (inactive) | > 100 µM (inactive) | > 100 µM (inactive) | > 100 µM (inactive) | > 100 µM (inactive) | > 100 µM (inactive) | > 100 µM (inactive) | > 100 µM (inactive) | > 100 µM (inactive) | > 100 µM (inactive) | > 100 µM (inactive) | > 100 µM (inactive) | > 100 µM (inactive) | 44.7 µM (inactive) | > 100 µM (inactive) | > 100 µM (inactive) | > 100 µM (inactive)
13 | COc1c2c(cc3c1C(O)N1CC[C@]34[C@H]3O[C@H]3[C@H](OC)C[C@@H]14)OCO2 (stereo not given in full) | 50.5 µM (inactive) | > 100 µM (inactive) | > 100 µM (inactive) | 1.18 µM (inactive) | > 100 µM (inactive) | 42.8 µM (inactive) | 64.9 µM (inactive) | 73.1 µM (inactive) | 71.4 µM (inactive) | 31.6 µM (inactive) | > 100 µM (inactive) | > 100 µM (inactive) | 31.9 µM (inactive) | 16.4 µM (inactive) | > 100 µM (inactive) | 24.2 µM (inactive) | 86.3 µM (inactive) | > 100 µM (inactive) | > 100 µM (inactive) | > 100 µM (inactive)
14 | O=c1c(Sc2ncccn2)c(Sc2ncccn2)cnn1CCl | 19.1 µM (inactive) | 10.2 µM (inactive) | 2.64 µM (inactive) | 2.04 µM (inactive) | 2.59 µM (inactive) | 1.98 µM (inactive) | 1.17 µM (inactive) | 14.7 µM (inactive) | 2.01 µM (inactive) | 1.77 µM (inactive) | 2.72 µM (inactive) | 28.1 µM (inactive) | 0.665 µM (active) | 2.02 µM (inactive) | 1.52 µM (inactive) | 11.1 µM (inactive) | 16.4 µM (inactive) | 0.398 µM (active) | 7.08 µM (inactive) | 1.7 µM (inactive)
